Reference: US12351819B2, “Method for removing undifferentiated pluripotent stem cells” (priority 2017, dated 2025)

Key:
hESCs [1] = test: PI/Annexin V flow cytometry cell death assay, hESCs; type: cell-based, human; conditions: 24 hours; FIG. 2A: 1.25 μM digoxin, 2.5 μM lanatoside C
Description: For cell death assay, Propidium iodine/Annexin V assay was performed according to the manufacturer's instruction (Alexa Fluor® 488 Annexin V/Dead Cell Apoptosis Kit; Life Technologies). In brief, live cells were dissociated with trypsin and incubated with Annexin V antibody and PI working solution for 15 minutes. We added 400 μl 1× annexin binding buffer and analyzed the stained cells by FACSCanto™ (Becton Dickinson, Franklin Lakes, NJ, USA). For analyzing the phenotypic signature of MSCs we used a Stemflow™ hMSC analysis kit (BD Biosciences) and FACSCanto™. All flow data was analyzed by FACSDivam software (BD Biosciences) and FlowJo™ (FlowJo, LLC, Ashland, USA).

hESCs [2] = test: Alamar blue assay, hESCs; type: cell-based, human; conditions: FIG. 12
Description: Alamar blue assay measured the relative cell number. In the cells, we added 1/10 of Alamar Blue Viability Assay reagent to the total volume of the mixture (Biotium; Fremont, CA, USA). The cells were incubated overnight at 37° C. The resulted were quantified by the measurement of optical density (OD) absorbance values at 570 nm and 600 nm, and the relative cell number was calculated.

hBMMSCs [3] = test: Chondrogenic induction and Alcian blue assay; type: cell-based, human; conditions: 2.5 μM 24 hours, drug removed; Alcian blue O.D 650 nm
Description: Next, drugs were removed, and 1×10^5 cells were seeded in 96-well U-bottom culture plated. After 24 hours, we changed the complete MSCgo™ Chondrogenic medium (Biological Industries) for 21 days. The media were changed every 3-4 days. Next, the pelleted cells were fixed with 4% formaldehyde for 1 hours, washed twice with ddH2O, and stained with a 1% Alcian blue solution in 0.1N HCl for 30 min. For Alcian Blue elution, we added […] Guanidine HCL solution and incubated overnight at RT. The absorbance at 650 nm was detected.

H9 hESC-MSCs [4] = test: Cell morphology under bright field, H9 hESC-MSCs; type: cell-based, human; conditions: 2.5 μM, 12 hours and 24 hours
hESCs [5] = test: Cell colony and morphology under bright field, hESCs; type: cell-based, human; conditions: 2.5 μM, 12 hours and 24 hours
Description: (§1) Scale bar: 500 μm. […] The samples were normalized to the DMSO-treated hESCs. ***P<0.001; **P<0.01; n.s. not significant. Data are shown as the mean SD.
We investigated whether cardiac glycosides affected the viability of hESCs or other cell types. First, we treated undifferentiated hESCs with digoxin and lanatoside C for 12 hours and 24 hours, respectively. […] To investigate the cytotoxic effect of the cardiac glycosides, we measured the release of LDH in the culture supernatants after the hESCs were treated with digoxin or Lanatoside C for 24 hours (FIG. 1C).

hBMMSCs [6] = test: Cell morphology under bright field, hBMMSCs; type: cell-based, human; conditions: 2.5 μM, 12 hours and 24 hours
Excerpt: as §1

HUES6 hESCs = test: Cell colony and morphology under bright field, HUES6; type: cell-based, human; conditions: 2.5 μM, 12 hours and 24 hours
Excerpt: Cells became round and died. […] Data are shown as the mean SD.

H9 hESC-MSCs [7] = conditions: 2.5 μM, 24 hours
Description: The supernatants of cells treated with digoxin […], lanatoside C 2.5 μm, or DMSO solvent control for 24 hours were harvested. The released LDH was measured using CytoTox 96 […] assay according to the manufacture's instruction (Promega, Southampton, UK). The supernatants and reagents were incubated at room temperature for 20 minutes and then the reaction was stopped by Stop Solution. The absorbance at 490 nm was measured using a plate-reading spectrophotometer (Benchmark Plus Microplate Spectrophotometer System, BIO-RAD, CA, USA).
According to the report from Dr. Xu and colleagues^30, hESCs were cultured with 10 ng/ml BMP4 and 1 μM of A8301 for 5 days. Next, the cells were passaged on the gelatin-coated plate and the culture medium was switched to MSC culture medium [Minimum Essential Medium Eagle Alpha Modification (αMEM) medium supplemented with 20% fetal bovine serum (FBS), 1-glutamine (Gluta-MAX), 1× nonessential amino acids]. Cells were expanded within passage 5, and CD73^+ (11-0793, ThermoFisher Scientific) and CD105^+ (12-1057, ThermoFisher Scientific) double positive cells were sorted.
hESC-derived MSCs were trypsinized and washed with PBS. Then cells were incubated with anti-human CD73 FITC (ThermoFisher Scientific) and anti-human CD105 PE (ThermoFisher Scientific) for 15 minutes at 4° C. Cells were washed cells with PBS for three times. CD73^+/CD105^+ cells were sorted with the cell sorter (BD FACSAria II, BD Biosciences). Sorted cells were maintained in MSC culture medium.

[8] = test system: hiPSC-derived endothelial cells; test: LDH cytotoxicity assay in hiPSC-derived endothelial cells; type: cell-based, human; conditions: 2.5 μM, 24 hours
Description: The released LDH was measured using CytoTox 96 Non-Cytotoxicity assay according to the manufacture's instruction (Promega, Southampton, UK). The supernatants and reagents were incubated at room temperature for 20 minutes and then the reaction was stopped by Stop Solution. The absorbance at 490 nm was measured using a plate-reading spectrophotometer (Benchmark Plus Microplate Spectrophotometer System, BIO-RAD, CA, USA).

[9] = test system: cleaved PARP, caspase-3, caspase-7 in hBMMSCs; test: Western blot of apoptotic markers, hBMMSCs; type: cell-based, human; conditions: 2.5 μM, 12 hours
Description: RIPA buffer was used to harvest cell lysates (RIPA buffer: NaCl 150 mM, Tris pH 8.0 50 mM, EDTApH 8.0 5 mM, NP-40 1.0%, SDS 0.5%, sodium deoxycholate 0.1%). Western blot analyses were performed as previously described with different types of primary antibodies^29. The primary antibody includes anti-β-actin (A5441; Sigma), anti-Oct4 (sc-9081; Santa Cruz Biotechnology, Santa Cruz, CA, USA), anti-Nanog (3580; Cell Signaling Technology, Danvers, MA, USA), apoptosis antibody kit (9915; Cell Signaling Technology), ATP1A1 (3010; Cell Signaling Technology), and ATP1A2 (16836-1-AP; Proteintech™) were used. After reaction at 4° C. overnight, the blots were incubated with goat anti-mouse- or goat anti-rabbit antibody conjugated with horseradish peroxidase (Jackson ImmunoResearch Inc). The chemiluminescent substrate (WBKLS0500; Millipore, Darmstadt, Germany) was used to detect the blots. Fujifilm LAS-4000 (FUJIFILM, Tokyo, Japan) was used to take the images.

SMILES	cell death (PI/Annexin V) in hESCs (hESCs [1]) [%]	cell death in hESCs (Alamar blue, relative cell number) (hESCs [2])	differentiation ability of hBMMSCs into chondrocytes (hBMMSCs [3])	cell death (bright field morphology) in H9 hESC-MSCs (H9 hESC-MSCs [4])	cell death (bright field morphology) in hESCs (hESCs [5])	survival of hBMMSCs (bright field morphology) (hBMMSCs [6])	cell death (bright field morphology) in HUES6 (HUES6 hESCs)	cytotoxicity (LDH release) in H9 hESC-MSCs (H9 hESC-MSCs [7])	survival of hiPSC-derived endothelial cells (LDH release) [8]	cleaved form of apoptosis markers in hBMMSCs [9]
C[C@H]1O[C@@H](O[C@H]2[C@@H](O)C[C@H](O[C@H]3[C@@H](O)C[C@H](O[C@H]4CC[C@@]5(C)[C@H](CC[C@@H]6[C@@H]5C[C@@H](O)[C@]5(C)[C@@H](C7=CC(=O)OC7)CC[C@]65O)C4)O[C@@H]3C)O[C@@H]2C)C[C@H](O)[C@@H]1O [Digoxin, digoxin]	70	dose dependent manner	neither digoxin nor lanatoside C affected the differentiation ability	Neither digoxin (2.5 μM) nor lanatoside C (2.5 μM) induced cell death	induced dramatic cell death	did not affect the survival	induced cell death	Neither Digoxin nor lanatoside C affected the survival	remained alive	no cleaved form of the apoptosis markers was detected
CC(=O)O[C@H]1C[C@H](O[C@H]2[C@@H](O)C[C@H](O[C@H]3[C@@H](O)C[C@H](O[C@H]4CC[C@@]5(C)[C@H](CC[C@@H]6[C@@H]5C[C@@H](O)[C@]5(C)[C@@H](C7=CC(=O)OC7)CC[C@]65O)C4)O[C@@H]3C)O[C@@H]2C)O[C@H](C)[C@H]1O[C@@H]1O[C@H](CO)[C@@H](O)[C@H](O)[C@H]1O [Lanatoside C, lanatoside C]	82	dose dependent manner	neither digoxin nor lanatoside C affected the differentiation ability	Neither digoxin (2.5 μM) nor lanatoside C (2.5 μM) induced cell death	induced dramatic cell death	did not affect the survival	induced cell death	Neither Digoxin nor lanatoside C affected the survival	remained alive	no cleaved form of the apoptosis markers was detected
